# Tests used:
# [1] = test system: Rabbit venous thrombus models; experiment: In vivo antithrombotic effect evaluation test using rabbit (arteriovenous shunt); conditions: prompt i.v. + continuous i.v.
# Description: Rabbit venous thrombus models were prepared by a modification of the report of Wong et al. (Wong P C. et al., J. Pharmacol. Exp. Ther. 292: 351-357 (2000)). Male rabbits (JW, 2 to 4 kg) were anesthetized by the inhalation of isoflurane (ISOFLU®, manufactured by DS Pharma Animal Health Co., Ltd.) (introduced anesthesia: 4%, continuous anesthesia: 1.5 to 2.5%). A tracheostomy tube was inserted to each rabbit, which was then ventilated using a respirator. For the intravenous administration of a test drug and blood collection, catheters were inserted to the right femoral vein and the right femoral artery, respectively. An arteriovenous shunt filled with saline was inserted to the carotid artery and the jugular vein. The arteriovenous shunt was prepared by connecting Atom extension tubes (4Fr) having lengths of 15 cm and 13 cm to the artery side and the vein side, respectively, of a polyethylene tube (length: 60 cm, outside diameter: 11.1 mm, inside diameter: 7.9 mm). Also, 4-0 silk thread having a length of 5 cm was indwelled in the arteriovenous shunt. Blood was sent for 30 minutes from the carotid artery to the jugular vein via the arteriovenous shunt. The shunt was removed, and the weight of the silk thread covered with thrombus was measured. The weight of the silk thread measured before the experiment was subtracted from the measured weight, and the obtained value was used as a wet thrombus weight. One hour before the open of the arteriovenous shunt, the test drug or a vehicle was promptly intravenously administered (0.67 mL/kg) and then continuously intravenously administered (1 mL/kg/hr). The continuous injection was continued throughout the experiment. Further, an existing anticoagulant dabigatran (antithrombin drug) and rivaroxaban (FXa inhibitor) were tested as control drugs.
# In order to measure aPTT of blood samples as an index for the intrinsic coagulation pathway, blood was collected before administration and immediately before cessation of blood flow, and plasma was prepared using 3.2% sodium citrate. After incubation at 37° C. for 6 minutes, an STA reagent Cephascreen (for aPTT assay; manufactured by Roche Diagnostics K.K.) was added in an amount equal thereto, and the mixture was further incubated for 4 minutes. STA calcium chloride (manufactured by Roche Diagnostics K.K.) was added in an amount equal thereto, and the time required for coagulation was measured.
# In order to measure prothrombin time (PT) of blood samples as an index for the extrinsic coagulation pathway, blood was collected before administration and immediately before cessation of blood flow, and plasma was prepared using 3.2% sodium citrate. After incubation at 37° C. for 10 minutes, Neoplastin Plus (for PT assay; manufactured by Roche Diagnostics K.K.) was added in a double amount, and the time required for coagulation was measured.
# [2] = Dog PK test (Test Example 7); format: in vivo; conditions: plasma, 1 mg/kg, male beagle, intravenous, 1 mg/2 mL/kg, read-out: AUC from 0 hours to 24 hours (compound of Reference Example 2-6 in plasma)
# Description: (§1) The compound of Reference Example 2-6 was dissolved in a mixed solution of saline/0.1 N HCl=9/1, and this solution was intravenously administered at a dose of 1 mg/2 mL/kg to a male beagle. Blood collection was carried out 0.25, 0.5, 1, 2, 4, 6, and 24 hours after administration. 2 mL of blood was collected using a syringe packed with 20 μL of Novo-Heparin Injection, transferred to a centrifugal tube cooled in ice, and centrifuged at 3000 rpm at 4° C. for 10 minutes to prepare plasma. 200 μL of the prepared plasma was added to a tube containing 600 μL of acetonitrile and mixed for approximately 10 seconds using a vortex mixer. Then, the concentration of the compound of Reference Example 2-6 was measured.
# The compound of Example 1 was dissolved in a 0.5% aqueous methylcellulose solution, and this solution was orally administered at a dose of 5 mg/5 mL/kg to a male beagle fasted for 16 hours. Blood collection was carried out 0.5, 1, 2, 4, 6, and 24 hours after administration. 2 mL of blood was collected using a syringe packed with 20 μL of Novo-Heparin Injection, transferred to a centrifugal tube cooled in ice, and centrifuged at 3000 rpm at 4° C. for 10 minutes to prepare plasma. […] Then, the concentration of the compound of Reference Example 2-6 was measured.
# [3] = Dog PK test (Test Example 9); format: in vivo; conditions: plasma, 1 mg/kg, male beagle, intravenous, 1 mg/2 mL/kg, read-out: AUC from 0 hours to 24 hours (compound of Reference Example 2-6 in plasma)
# Description: as §1
# The compound of Example 7 was suspended in a 0.5% aqueous methylcellulose solution, and this suspension was orally administered at a dose of 5 mg/5 mL/kg to a male beagle fasted for 16 hours. Blood collection was carried out 0.5, 1, 2, 4, 6, and 24 hours after administration. 2 mL of blood was collected using a syringe packed with 20 μL of Novo-Heparin Injection, transferred to a centrifugal tube cooled in ice, and centrifuged at 3000 rpm at 4° C. for 10 minutes to prepare plasma. […] Then, the concentration of the compound of Reference Example 2-6 was measured.
# Human Trypsin = experiment: Enzyme selectivity evaluation test: trypsin; format: biochemical
# Description: S-2222 (Bz-Ile-Glu(γ-OR)-Gly-Arg-pNA.HCl (SEQ ID NO: 1), R═H (50%) and R═CH3 (50%)) was added as the substrate at a final concentration of 150 μmol/L. After progression of the reaction, the absorbance was measured at OD 405 nm.
# [4] = test system: Rabbit nail bleeding models; experiment: Effect of combined use with antiplatelet drug using rabbit nail bleeding model; format: in vivo; conditions: alone; for Bleeding time: rabbit, maximum 60 minutes; for Bleeding time (fold-increase): ratio to vehicle group average
# Description: Rabbit nail bleeding models were prepared by a modification of the report of Wong et al. (Wong P C. et al., J. Thromb. Haemost. 7: 1313-1320 (2009)). Male rabbits (JW, 1.5 to 3.5 kg) were anesthetized by the inhalation of isoflurane (ISOFLU®, manufactured by DS Pharma Animal Health Co., Ltd.) (introduced anesthesia: 4%, continuous anesthesia: 2 to 3%). For the intravenous administration of a test drug or a vehicle, an indwelling needle was inserted to the auricular vein, and the test drug or the vehicle was promptly intravenously administered (0.67 mL/kg) and then continuously intravenously administered (1 mL/kg/hr). One hour after the start of administration, three posterior toenails were cut and dipped in saline heated to approximately 37° C., and the bleeding time was measured. The bleeding time was defined as a time from the cutting to the arrest of bleeding, and an average value from the three nails was used. The measurement time was 60 minutes at the maximum. If bleeding for 60 minutes or longer was confirmed, the bleeding time was regarded as 60 minutes.
# [5] = dose 0.15 + 0.225 mg/kg + mg/kg/h
# [6] = dose 0.5 + 0.75 mg/kg + mg/kg/h
# [7] = dose 1.5 + 2.25 mg/kg + mg/kg/h
# [8] = dose 1.5 + 2.25 mg/kg + mg/kg/h i.v.
# [9] = dose 5.0 + 7.5 mg/kg + mg/kg/h i.v.
compound,measurement,setting,value
"Cl.N[C@H](CF)[C@H]1CC[C@H](C(=O)N2CC[C@@H](C3CCCCC3)[C@H]2C(=O)Nc2ccc3[nH]c(C(=O)O)cc3c2)CC1 [Reference Example 2-6, 5-{[(3S)-1-({trans-4-[(1S)-1-Amino-2-fluoroethyl]cyclohexyl}carbonyl)-3-cyclohexyl-L-prolyl]amino}-1H-indole-2-carboxylic acid hydrochloride]",PT (ratio),[1]; [5],1.01 ± 0.02 ratio
same,Thrombus weight,[1]; [5],81 ± 12 mg
same,aPTT (ratio),[1]; [5],1.24 ± 0.08 ratio
same,PT (ratio),[1]; [6],1.00 ± 0.02 ratio
same,Thrombus weight,[1]; [6],66 ± 22 mg
same,aPTT (ratio),[1]; [6],1.59 ± 0.15 ratio
same,PT (ratio),[1]; [7],1.01 ± 0.00 ratio
same,Thrombus weight,[1]; [7],36 ± 6 mg
same,aPTT (ratio),[1]; [7],1.84 ± 0.10 ratio
same,PT (ratio),[1]; dose 5.0 + 7.5 mg/kg + mg/kg/h,1.02 ± 0.02 ratio
same,Thrombus weight,[1]; dose 5.0 + 7.5 mg/kg + mg/kg/h,16 ± 6 mg
same,aPTT (ratio),[1]; dose 5.0 + 7.5 mg/kg + mg/kg/h,2.35 ± 0.09 ratio
same,AUC,[2],5220 ng·h/mL
same,AUC,[3],4420 ng·h/mL
same,IC50,Human Trypsin,> 10 µM
same,Bleeding time,[4]; [8],772 ± 234 s
same,Bleeding time,[4]; [9],768 ± 236 s
same,Bleeding time (fold-increase),[4]; [8],1.3 ± 0.4 fold-increase
same,Bleeding time (fold-increase),[4]; [9],1.3 ± 0.4 fold-increase
